Data taken from the supplement of paper PMC10307832.

How the values were obtained:
Test in all cases: relative viability (nuclei count vs DMSO), 5 days (fraction); higher = more cells survive
[1] = compound: COc1cccc2c1C(=O)c1c(O)c3c(c(O)c1C2=O)C[C@@](O)(C(=O)CO)C[C@@H]3O[C@H]1C[C@H](N)[C@H](O)[C@H](C)O1 [Doxorubicin] + C[C@@H](Oc1cc(-c2cnn(C3CCNCC3)c2)cnc1N)c1c(Cl)ccc(F)c1Cl [Crizotinib] (partner 1 µM)
Outline: (§1)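 A single step with final 0.05% Triton X-100, 1% formaldehyde and 1 ug/ml Hoechst fixed the cells and stained nuclei 5 days after treatment. Lung cancer cell lines in 1536-well plates had been treated by pin tool the day after seeding with one drug alone or a fixed anchor-drug dose plus five library-drug doses (not always all listed) in √10 steps, and nuclei were counted on 4× images. Relative viability is the ratio of nuclei in treated wells to nuclei in vehicle wells, taken as the median of duplicate plates.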

[2] = compound: COc1cccc2c1C(=O)c1c(O)c3c(c(O)c1C2=O)C[C@@](O)(C(=O)CO)C[C@@H]3O[C@H]1C[C@H](N)[C@H](O)[C@H](C)O1 [Doxorubicin] + COc1cc2c(Oc3ccc(NC(=O)C4(C(=O)Nc5ccc(F)cc5)CC4)cc3F)ccnc2cc1OCCCN1CCOCC1 [Foretinib] (partner 0.25 µM)
Outline: as §1

[3] = compound: COC1=C(C=C(C=C1)C2=CC3=NC=CN3C(=N2)NC4=C(C=CC=N4)C(=O)N)OC [BAY61-3606] + O=C(c1cc(Cc2n[nH]c(=O)c3ccccc23)ccc1F)N1CCN(C(=O)C2CC2)CC1 [Olaparib] (partner 8 µM)
Outline: as §1

[4] = compound: COC1=C(C=C(C=C1)C2=CC3=NC=CN3C(=N2)NC4=C(C=CC=N4)C(=O)N)OC [BAY61-3606] + NC(=O)Nc1cc(-c2cccc(F)c2)sc1C(=O)N[C@H]1CCCNC1 [AZD7762] (partner 0.2 µM)
Outline: as §1

Cell Line | relative viability ([1]; first compound 0.001 µM) | relative viability ([1]; first compound 0.003162 µM) | relative viability ([1]; first compound 0.01 µM) | relative viability ([1]; first compound 0.03162 µM) | relative viability ([1]; first compound 0.1 µM) | relative viability ([2]; first compound 0.001 µM) | relative viability ([2]; first compound 0.003162 µM) | relative viability ([2]; first compound 0.01 µM) | relative viability ([2]; first compound 0.03162 µM) | relative viability ([2]; first compound 0.1 µM) | relative viability ([3]; first compound 0.02 µM) | relative viability ([3]; first compound 0.06325 µM) | relative viability ([3]; first compound 0.2 µM) | relative viability ([3]; first compound 0.6325 µM) | relative viability ([3]; first compound 2 µM) | relative viability ([4]; first compound 0.02 µM) | relative viability ([4]; first compound 0.06325 µM) | relative viability ([4]; first compound 0.2 µM) | relative viability ([4]; first compound 0.6325 µM) | relative viability ([4]; first compound 2 µM)
201T | 1 | 1.07 | 1.05 | 1.05 | 1.04 | 0.963 | 1.03 | 1.02 | 0.898 | 0.523 | 0.833 | 0.842 | 0.865 | 0.838 | 0.824 | 0.592 | 0.759 | 0.752 | 0.661 | 0.688
A549 | 0.774 | 0.634 | 0.419 | 0.0759 | 0.0405 | 0.911 | 1.1 | 0.927 | 0.684 | 0.29 | 0.332 | 0.377 | 0.217 | 0.312 | 0.336 |  |  |  |  | 
A-427 | 0.855 | 1.02 | 0.897 | 0.978 | 0.88 | 0.981 | 1.13 | 0.97 | 1.02 | 1.05 | 0.79 | 0.694 | 0.765 | 0.777 | 0.715 | 0.831 | 0.689 | 0.659 | 0.752 | 0.682
ABC-1 | 1.09 | 1.28 | 0.804 | 0.294 | 0.209 | 1.48 | 1.13 | 1.02 | 0.676 | 0.339 | 0.908 | 0.686 | 0.76 | 0.494 | 0.711 | 0.644 | 0.793 | 0.716 | 0.701 | 0.873
BEN | 0.925 | 0.968 | 0.825 | 0.707 | 0.832 | 0.978 | 0.678 | 0.612 | 0.49 | 0.582 | 1.2 | 0.865 | 1.16 | 1.29 | 0.972 | 0.78 | 0.637 | 0.672 | 0.694 | 0.808
CAL-12T | 0.671 | 0.507 | 0.566 | 0.182 | 0.116 | 1.03 | 1.07 | 1.04 | 0.568 | 0.35 | 0.748 | 0.773 | 0.735 | 0.758 | 0.53 | 0.693 | 0.577 | 0.677 | 0.634 | 0.71
COR-L23 | 0.764 | 0.66 | 0.562 | 0.252 | 0.0977 | 0.964 | 1.06 | 0.918 | 0.64 | 0.221 | 0.343 | 0.356 | 0.411 | 0.353 | 0.269 |  |  |  |  | 
COR-L 105 | 0.802 | 0.841 | 0.598 | 0.38 | 0.248 | 1.02 | 0.943 | 0.9 | 0.62 | 0.7 | 0.741 | 0.658 | 0.603 | 0.787 | 0.584 |  |  |  |  | 
Calu-6 | 0.776 | 0.708 | 0.52 | 0.229 | 0.171 | 0.945 | 1.01 | 0.828 | 0.619 | 0.362 | 0.659 | 0.562 | 0.543 | 0.551 | 0.466 |  |  |  |  | 
ChaGo-K-1 | 1.15 | 1.01 | 0.98 | 0.45 | 0.378 | 1.03 | 0.946 | 0.835 | 0.937 | 0.826 | 0.442 | 0.452 | 0.368 | 0.392 | 0.357 | 0.943 | 0.904 | 0.9 | 0.847 | 0.841
EBC-1 | 0.222 | 0.189 | 0.179 | 0.177 | 0.164 | 0.114 | 0.1 | 0.0884 | 0.0952 | 0.0885 | 0.712 | 0.769 | 0.701 | 0.748 | 0.614 |  |  |  |  | 
EKVX | 0.865 | 1.02 | 0.792 | 1.02 | 0.948 | 0.735 | 0.891 | 0.912 | 0.831 | 0.704 | 0.99 | 0.999 | 0.798 | 0.91 | 0.782 | 0.742 | 0.673 | 0.644 | 0.753 | 0.665
EMC-BAC-2 | 0.793 | 0.824 | 0.748 | 0.674 | 0.692 | 1.15 | 1.06 | 0.861 | 0.595 | 0.582 | 0.493 | 0.52 | 0.48 | 0.493 | 0.457 | 1.12 | 0.888 | 1.1 | 1.32 | 1.12
EPLC-272H | 1.37 | 0.965 | 1.01 | 0.806 | 0.861 | 0.899 | 0.67 | 0.753 | 0.517 | 0.78 | 0.962 | 0.722 | 0.706 | 0.709 | 0.323 | 0.223 | 0.193 | 0.313 | 0.186 | 0.173
H3255 | 0.917 | 0.88 | 0.804 | 0.608 | 0.45 | 0.791 | 0.821 | 0.973 | 0.818 | 0.863 | 0.545 | 0.486 | 0.511 | 0.582 | 0.516 | 0.941 | 0.775 | 1.03 | 0.942 | 0.902
HARA | 1.04 | 1.04 | 1.03 | 1.01 | 0.959 | 0.791 | 0.946 | 0.779 | 0.816 | 0.866 | 1.02 | 0.929 | 1.06 | 0.845 | 0.619 | 0.286 | 0.291 | 0.452 | 0.303 | 0.3
HCC-15 | 0.733 | 0.817 | 0.767 | 0.551 | 0.534 |  | 0.922 | 0.94 | 0.49 | 0.404 | 0.668 | 0.685 | 0.729 | 0.719 | 0.655 | 1.31 | 0.919 | 1.29 | 1.25 | 1.16
